Experimental data from patent US10793509B2, “Compounds useful in the treatment of neoplastic diseases” (UNIVERSITÄT ZU KÖLN, priority 2013, dated 2020).
Like-named read-outs stand apart in the source and are kept apart here.

What was measured:
Primary CLL cells = assay: AnnexinV/PI assay on primary CLL cells; format: cell-based, human; details: for EC50: Homo sapiens, CLL cell, read-out: AnnexinV/PI assay EC50 Primary CLL; for selectivity for CLL cells compared to PBMCs: FIG. 3, sensitivity of CLL cells vs PBMCs
Procedure: (§1) PBMCs or CLL cells (5*10^6 cells/ml) were incubated for 24 h with different compounds at concentrations from 0.01 to 100 μM. Cell survival was normalized to DMSO control [vehicle]. See Example 1.
(§2) Primary CLL or peripheral blood mononuclear cells of healthy donors (5*10^6/ml) were incubated for 24 h with different compounds according to the invention and NO-ASA as a control. The compounds were added in different concentrations, in particular in concentrations from 0.01-100 μM. Cell survival was assessed by AnnexinV/PI assay (Kit commercially available, e.g. by Biotium Inc, USA; or Phoenix Flow Systems, US), the results were normalized to DMSO control [vehicle] and dose response curves were calculated using a non-linear regression model.

[1] = system: peripheral blood mononuclear cells (PBMCs) of healthy donors; assay: AnnexinV/PI assay on PBMCs of healthy donors; format: cell-based; details: Homo sapiens, PBMC
Procedure: as §1, §2

MEC-1 = assay: CellTiter-Glo ATP assay, MEC-1 cell line; format: cell-based; details: Homo sapiens, MEC1; 24 h, CellTiter-Glo
Procedure: (§3) Several cell lines (n=5) were treated with different concentrations of p-NO-ASA, B9, B12 and B13 ranging between 0.01 μM and 1000 μM for 24 hours followed by addition of luminogenic CellTiter-Glo®-reagent. […] For each cell line the order of used compound in the bar chart is from left to right as following: p-NO-ASA, B9, B12, B13.
(§4) Treatment success in CLL may depend on cytogenetic and molecular parameters as for instance del13q or TP53 gene disruption. Therefore, the NO-ASA derivatives were examined on (chronic) B cell lymphoma cell lines with different geno- and phenotypes (JVM3, EHEB, U2932, MEC-1, GRANTA-519). The cells were treated with concentrations between 0.01 and 1000 μM for 24 h followed by the addition of luminogenic CellTiter-Glo® reagent.

GRANTA-519 = assay: CellTiter-Glo ATP assay, GRANTA-519 cell line; format: cell-based; details: Homo sapiens, Granta-519; 24 h, CellTiter-Glo
Procedure: as §3, §4

JVM-3 = assay: CellTiter-Glo ATP assay, JVM-3 cell line; format: cell-based, human; details: 24 h, 0.01-1000 μM
Procedure: as §3, §4

U2932 = assay: CellTiter-Glo ATP assay, U2932 cell line; format: cell-based; details: 24 h, 0.01-1000 μM
Procedure: as §3, §4

EHEB = assay: CellTiter-Glo ATP assay, EHEB cell line; format: cell-based; details: 24 h, 0.01-1000 μM
Procedure: as §3, §4

[2] = system: CLL cells without a TP53 mutation; assay: FACS analysis of treated CLL cells without TP53 mutation; format: cell-based, human; details: 24 h, 0.01-100 μM, FIG. 6
Procedure: (§5) Isolated, primary CLL cells were treated for 24 h with the EC50 of the different compounds and the ATP-content was measured by flow cytometry. For each used compound the order of mean EC50 concentrations in the bar chart is from left to right as following: EC50 CLL cells TP53 unmut (unmutated=without mutation), EC50 CLL cells TP53 mut (mutated=with mutation).
(§6) Further, the derivatives B9, B12 and B13 were tested in comparison to para-NO-ASA on CLL cells which harbour a TP53 mutation. The patient subgroup with a TP53 disruption is characterized by a considerable dismal prognosis. CLL cells of patients with and without the TP53 mutation were treated with five different concentrations (0.01, 0.1, 1, 10, 100 μM) of para-NO-ASA, B9, B12 and B13 for 24 h.

TP53-mutated CLL cells = assay: FACS analysis of treated CLL cells with TP53 mutation; format: cell-based, human; details: 24 h, 0.01-100 μM, FIG. 6
Procedure: as §5, §6

[3] = system: colon carcinoma cell line SW480; assay: cells; format: cell-based; details: Homo sapiens, SW480, 24 h, read-out: Viability assay EC50, SW480
Procedure: The cell lines (n=5) were treated with different concentrations of p-NO-ASA, B9, B12 and B13 ranging between 0.01 μM and 100 μM for 24 hours followed by addition of luminogenic CellTiter-Glo®-reagent (see Example 5).
(§7) In the following experiment the possible therapeutic window for NO-ASA derivatives was investigated. […] The melanoma cell line MelJuso, the colon carcinoma cell line SW480, the small cell lung cancer cell line HCC44, the ovarian adenocarcinoma cell line COLO704 and the acute myeloid leukemia cell line SH2 were treated with concentrations of p-NO-ASA and B9, B12 and B13 in a range between 0.01 μM and 100 μM for 24 h, followed by addition of luminogenic CellTiter-Glo® reagent.
(§8) Table accompanying Example 5. Overview of the EC50 values of cell survival analyzed by ATP content and Annexin V/PI assay. n.t.; not tested

[4] = system: acute myeloid leukemia cell line SH2; assay: Viability assay (ATP content, CellTiter-Glo), SH2; format: cell-based; details: 24 h
Procedure: as §7, §8

[5] = system: melanoma cell line MelJuso; assay: Viability assay (ATP content, CellTiter-Glo), MelJuso; format: cell-based; details: Homo sapiens, MEL-JUSO, 24 h
Procedure: as §7, §8

[6] = system: small cell lung cancer cell line HCC44; assay: Viability assay (ATP content, CellTiter-Glo), HCC44; format: cell-based
Procedure: as §7, §8

[7] = system: ovarian adenocarcinoma cell line COLO704; assay: Viability assay (ATP content, CellTiter-Glo), COLO704; format: cell-based; details: COLO 704, 24 h
Procedure: as §7, §8

[8] = system: acute myeloid leukemia cell line SH2; assay: Annexin V/PI assay, SH2; format: cell-based; details: 24 h
[9] = system: melanoma cell line MelJuso; assay: Annexin V/PI assay, MelJuso; format: cell-based; details: Homo sapiens, MEL-JUSO, 24 h
[10] = system: small cell lung cancer cell line HCC44; assay: Annexin V/PI assay, HCC44; format: cell-based; details: Homo sapiens, HCC44, 24 h
[11] = system: ovarian adenocarcinoma cell line COLO704; assay: Annexin V/PI assay, COLO704; format: cell-based; details: COLO 704, 24 h
[12] = system: SW480, MelJuso, HCC44, SH2 and COLO704 cell lines; format: cell-based; details: 24 h, 0.01-100 μM
Procedure: as §7

[13] = system: several cancer cell lines; assay: Apoptosis (Annexin V/PI) assay, panel of cancer cell lines; format: cell-based; details: range over the cancer cell lines, 24 h; read-out: concentrations inducing apoptosis in different diseases (apoptosis array)
[14] = system: phosphorylated NFkappaBp65 protein; assay: Western blot of NFkappaB phosphorylation status in CLL cells; format: cell-based, human; details: 3 h; for reduction of NFkappaB activity (phosphorylated NFkappaBp65): CLL cells, 0.1, 1, 10 μM; for concentration inducing the reduction of NFkappaB p65 protein: CLL cells
Procedure: CLL cells were treated with B1, B9, B12 and B13 (0.1 μM, 1 μM, 10 μM) for 3 h. Untreated and DMSO (1%) treated cells served as control. GAPDH=loading control.
The BCR signalling pathway plays an important pathogenic role in CLL and lymphomas leading often to a constitutive active NFkappaB (in this state NFkappaB is phosphorylated). Therefore the influence of the derivatives on the phosphorylation status of NFkappaB was analyzed by Western Blot. CLL cells were treated with 0.1 μM, 1 μM or 10 μM of each derivate, respectively, for 3 h. CLL cells were treated with B1, B9, B12 and B13 (0.1 μM, 1 μM, 10 μM) for 3 h. Untreated and DMSO (1%) treated cells served as control. GAPDH=loading control.

[15] = 24 h incubation, 0.01-100 μM, 5*10^6 cells/ml, normalized to DMSO control
[16] = 24 h incubation, 0.01-100 μM, 5*10^6 cells/ml, normalized to DMSO control, read-out: AnnexinV/PI assay EC50 PBMCs
[17] = 24 h incubation, value extrapolated beyond tested 0.01-100 μM, read-out: AnnexinV/PI assay EC50 PBMCs (* = extrapolated)

Structure (SMILES): COc1cc(CO[N+](=O)[O-])ccc1OC(=O)c1ccccc1 [B11, 2-methoxy-4-((nitrooxy)methyl)phenyl benzoate]
- EC50 (Primary CLL cells; 24 h): 14.7 µM
- EC50 ([1]; 24 h, read-out: AnnexinV/PI assay EC50 PBMCs): 24.4 µM

Structure (SMILES): O=C(Oc1ccc(CCl)cc1)c1ccccc1 [B12, 4-(chloromethyl)phenyl benzoate]
- selectivity for CLL cells compared to PBMCs (Primary CLL cells; 24 h): selective for CLL cells
- EC50 (Primary CLL cells; [15]): 1.33 µM
- EC50 [1, 16]: 35 µM
- EC50 (MEC-1): 3.24 µM
- EC50 (GRANTA-519): 0.68 µM
- ATP content in JVM-3 (JVM-3): reduced ATP content
- ATP content in U2932 (U2932): reduced ATP content
- ATP content in EHEB (EHEB): reduced ATP content
- effect on CLL cells without a TP53 mutation [2]: great effect
- effect on TP53-mutated CLL cells in comparison to para-NO-ASA (B1) (TP53-mutated CLL cells): more effective
- EC50 [3]: 130 µM
- EC50 [4]: 0.01 µM
- EC50 [5]: 0.54 µM
- EC50 ([6]; 24 h): 1.03 µM
- EC50 ([6]; Homo sapiens, HCC44, 24 h): 1.05 µM
- EC50 [7]: 2.77 µM
- EC50 [8]: 1.68 µM
- EC50 [9]: 4.79 µM
- EC50 [10]: 7.35 µM
- EC50 [11]: 1.8 µM
- ATP content in SW480, MelJuso, HCC44, SH2 and COLO704 cell lines [12]: reduced ATP content
- EC50 [13]: 1 to 5 µM
- reduction of NFkappaB activity (phosphorylated NFkappaBp65) [14]: concentration dependent reduction
- concentration inducing the reduction of NFkappaB p65 protein [14]: 10 µM

Structure (SMILES): O=C(Oc1ccc(CO[N+](=O)[O-])cc1)c1cccc2ccccc12 [B13, 4-((nitrooxy)methyl)phenyl 1-naphthoate]
- selectivity for CLL cells compared to PBMCs (Primary CLL cells; 24 h): selective for CLL cells
- EC50 (Primary CLL cells; [15]): 1.04 µM
- EC50 [1, 16]: 52.7 µM
- EC50 (MEC-1): 24.1 µM
- EC50 (GRANTA-519): 19.7 µM
- ATP content in JVM-3 (JVM-3): reduced ATP content
- ATP content in U2932 (U2932): reduced ATP content
- ATP content in EHEB (EHEB): reduced ATP content
- effect on TP53-mutated CLL cells in comparison to para-NO-ASA (B1) (TP53-mutated CLL cells): more effective
- EC50 [3]: 190 µM
- EC50 [4]: 0.64 µM
- EC50 [5]: 4.79 µM
- EC50 ([6]; Homo sapiens, HCC44, 24 h): 1.68 µM
- EC50 [7]: 7.86 µM
- EC50 [8]: 6.95 µM
- EC50 [9]: 57.5 µM
- EC50 [10]: 37.9 µM
- EC50 [11]: 53.7 µM
- ATP content in SW480, MelJuso, HCC44, SH2 and COLO704 cell lines [12]: reduced ATP content
- EC50 [13]: 7 to 57 µM
- reduction of NFkappaB activity (phosphorylated NFkappaBp65) [14]: concentration dependent reduction
- concentration inducing the reduction of NFkappaB p65 protein [14]: 10 µM

Structure (SMILES): O=C(Oc1ccc(CO[N+](=O)[O-])cc1)C1CCCCC1 [B14, 4-((nitrooxy)methyl)phenyl cyclohexane carboxylate]
- EC50 (Primary CLL cells; [15]): 3.31 µM
- EC50 [1, 16]: 20.2 µM

Structure (SMILES): Nc1cccc2c(S(=O)(=O)Oc3ccc(CO[N+](=O)[O-])cc3)cccc12 [B16, 4-((nitrooxy)methyl)phenyl 5-aminonaphthalene-1-sulfonate]
- EC50 (Primary CLL cells; [15]): 82.4 µM
- EC50 [1, 17]: 370 µM

Structure (SMILES): COc1ccccc1C(=O)Oc1ccc(CO[N+](=O)[O-])cc1 [B18, 4-((nitrooxy)methyl)phenyl 2-methoxybenzoate]
- EC50 (Primary CLL cells; [15]): 26 µM

Structure (SMILES): C#Cc1cc(CO[N+](=O)[O-])ccc1OC(=O)c1ccccc1 [B20, 2-ethynyl-4-((nitrooxy)methyl)phenyl benzoate]
- EC50 (Primary CLL cells; [15]): 21.8 µM
- EC50 [1, 17]: 308 µM
